System: 922993-354-T-J3-PDC complex spheroids, viability, % test/control
Experiment: Anticancer human tumor 922993-354-T-J3-PDC patient-derived endometrial carcinoma cell line growth inhibition [CLK]
Conditions: for IC50: curve of first compound; for viability, T/C: stronger effect = lower value; active = viability on the fitted dose curve at most 10% of control; inactive = the rest
From the text: A high-throughput screen of multi-cell type tumor spheroids was designed to identify active combinations of […] and targeted small molecules. Complex spheroids include a stromal component modeled by human endothelial cells (HUVEC) and fibroblasts modeled by human mesenchymal stem cells (MSCs). The concentration ranges selected for each drug and investigational agent were based upon clinically achievable concentrations if the clinical Cmax of the agent was known.
Compounds. The drugs and investigational agents: cirtuvivint (SM08502; NSC835563), CC-671 (NSC850746), vemurafenib (NSC761431), tapotoclax (NSC804041), sotorasib (NSC818433), adagrasib (NSC831453), MRTX-1133 (NSC836407), BAY2416964 (NSC825713), copanlisib (NSC816437), inavolisib (NSC800729), abemaciclib (NSC768073), osimertinib (NSC779217), entinostat (NSC756642), eltanexor (KPT-8602, NSC794443), venetoclax (NSC766270), ceralasertib (NSC777638), bortezomib (NSC756655), olaparib (NSC753686), talazoparib (NSC767125), alisertib (NSC759677), peposertib (NSC802822), gemcitabine (NSC613327), 5-fluorouracil (NSC19893), SN-38 (NSC673596), oxaliplatin (NSC266046), paclitaxel (NSC125973), and doxorubicin (NSC123127), were obtained from the National Cancer Institute (NCI) Developmental Therapeutics Program Chemical Repository. The FDA-approved anticancer drug set is available from the Developmental Therapeutics Program at https://dtp.cancer.gov/organization/dscb/obtaining/available plates.htm. […] The stock solutions were prepared in dimethyl sulfoxide (DMSO, Sigma-Aldrich, St. Louis, MO, cat. D2650), except for the platinum complexes which were prepared in saline (Quality Biological, Gaithersburg, MD, cat. 114-055-101), at 800-fold the tested concentration and stored at -70 degrees C prior to their use. All drugs and investigational agents were tested over a range starting from a high concentration at or near the clinical Cmax and decreasing in half-log increments. If the clinical Cmax for an agent had not been determined, the highest concentration tested was 10 microM.
Cell Culture. All cells were maintained in an incubator at 37 degrees C and 5% CO2 with 95% humidity. The PDC lines were cultured according to standard operating procedures established by the NCI PDMR. Briefly, all PDCs were thawed and cultured in Matrigel-coated flasks prepared with a working solution of 1X Ham's F-12 nutrient mix, without supplementation (Invitrogen, Waltham, MA, cat. 11765054), 100 U/mL penicillin-streptomycin (Invitrogen, cat. 15140122), and 2.5% Matrigel (Corning Inc., Corning, NY, cat. 354248) for the first three passages. The 947758-054-R-J2-PDC line was cultured in 6B/Colon 1A media, which includes advanced DMEM/F-12 (Thermo Fisher Scientific, cat. 12634028), 10 mM HEPES (Thermo Fisher Scientific, cat. 15630080), 1X GlutaMAX supplement (Thermo Fisher Scientific, cat. 35050061), 0.1 mg/mL primocin (InvivoGen, cat. ant-pm-2), 10% defined fetal bovine serum, heat inactivated (HyClone Laboratories Inc., cat. SH30070.03HI), 1.25 mM N-Acetyl-L-cysteine (Sigma-Aldrich, cat. A9165), 10 mM nicotinamide (Sigma-Aldrich, cat. N0636), 1X B-27 supplement (Thermo Fisher Scientific, cat. 17504044), 1X N-2 supplement (Thermo Fisher Scientific, cat. 17502048), and 10 microM Y-27632 dihydrochloride (Tocris Bioscience, cat. 1254). The 876862-298-R-J1-PDC was cultured in 6E media, which includes all 6B/Colon 1A media components plus 50% L-WRN conditioned media (ATCC, cat. CRL-3276), 50 ng/mL recombinant human EGF recombinant protein (hEGF; Thermo Fisher Scientific, cat. PHG0311), 10 ng/mL recombinant human fibroblast growth factor 10 (hGFG-10; PeproTech, cat. 100-26), 1 ng/mL recombinant human fibroblast growth factor 2 (hFGF-2; PeproTech, cat. 100-18B), and 1 µM prostaglandin E2 (PGE2; Tocris, cat. 2296). The 227483-062-R1-J1-PDC line was cultured in Panc media, containing all 6E components except hFGF-2, with the addition of 500 nM SB-431542 (Selleckchem, cat. S1067) and 10 nM gastrin (Tocris, cat. 3006). […]

[1] = second compound 0.0316 µM, first compound 0.0316 µM
[2] = second compound 0.0316 µM, first compound 0.1 µM
[3] = second compound 0.0316 µM, first compound 0.316 µM
[4] = second compound 0.0316 µM, first compound 1 µM
[5] = second compound 0.0316 µM, first compound 3.16 µM
[6] = second compound 0.0316 µM, first compound 10 µM
[7] = second compound 0.1 µM, first compound 0.0316 µM
[8] = second compound 0.1 µM, first compound 0.1 µM
[9] = second compound 0.1 µM, first compound 0.316 µM
[10] = second compound 0.1 µM, first compound 1 µM
[11] = second compound 0.1 µM, first compound 3.16 µM
[12] = second compound 0.1 µM, first compound 10 µM
[13] = second compound 0.316 µM, first compound 0.0316 µM
[14] = second compound 0.316 µM, first compound 0.1 µM
[15] = second compound 0.316 µM, first compound 0.316 µM
[16] = second compound 0.316 µM, first compound 1 µM
[17] = second compound 0.316 µM, first compound 3.16 µM
[18] = second compound 0.316 µM, first compound 10 µM
[19] = second compound 1 µM, first compound 0.0316 µM
[20] = second compound 1 µM, first compound 0.1 µM
[21] = second compound 1 µM, first compound 0.316 µM
[22] = second compound 1 µM, first compound 1 µM
[23] = second compound 1 µM, first compound 3.16 µM
[24] = second compound 1 µM, first compound 10 µM
[25] = second compound 3.16 µM, first compound 0.0316 µM
[26] = second compound 3.16 µM, first compound 0.1 µM
[27] = second compound 3.16 µM, first compound 0.316 µM
[28] = second compound 3.16 µM, first compound 1 µM
[29] = second compound 3.16 µM, first compound 3.16 µM
[30] = second compound 3.16 µM, first compound 10 µM
[31] = second compound 10 µM, first compound 0.0316 µM
[32] = second compound 10 µM, first compound 0.1 µM
[33] = second compound 10 µM, first compound 0.316 µM
[34] = second compound 10 µM, first compound 1 µM
[35] = second compound 10 µM, first compound 3.16 µM
[36] = second compound 10 µM, first compound 10 µM
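Also: spheroids exposed to the agents for 7 days before readout.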

C#Cc1c(F)ccc2cc(O)cc(-c3ncc4c(N5CC6CCC(C5)N6)nc(OCC56CCCN5CC(F)C6)nc4c3F)c12 (centres undefined) + CN1CCN(c2cc(C(=O)Nc3cc4cc(-c5cnn(C)c5)ccc4cn3)ccn2)CC1
> 10000 nM: IC50 (second compound 0.0316 µM) | IC50 (second compound 0.1 µM)
56.8 nM: IC50 (second compound 0.316 µM)
< 31.6 nM: IC50 (second compound 1 µM) | IC50 (second compound 3.16 µM) | IC50 (second compound 10 µM)
active: viability, T/C [19] 0.17% | viability, T/C [20] 0.42% | viability, T/C [21] 1.47% | viability, T/C [22] 0.44% | viability, T/C [23] 0.92% | viability, T/C [24] 0.14% | viability, T/C [25] 0.14% | viability, T/C [26] 0.2% | viability, T/C [27] 0.11% | viability, T/C [28] 0.11% | viability, T/C [29] 2.16% | viability, T/C [30] 2.87% | viability, T/C [31] 0.88% | viability, T/C [32] 0.85% | viability, T/C [33] 1.6% | viability, T/C [34] 0.15% | viability, T/C [35] 2.52% | viability, T/C [36] 3.71%
inactive: viability, T/C [1] 123% | viability, T/C [2] 113% | viability, T/C [3] 122% | viability, T/C [4] 107% | viability, T/C [5] 111% | viability, T/C [6] 93.3% | viability, T/C [7] 99.5% | viability, T/C [8] 105% | viability, T/C [9] 91.9% | viability, T/C [10] 92.4% | viability, T/C [11] 103% | viability, T/C [12] 88% | viability, T/C [13] 57% | viability, T/C [14] 47.9% | viability, T/C [15] 38.6% | viability, T/C [16] 42.1% | viability, T/C [17] 41.4% | viability, T/C [18] 41.3%

C=C(F)C(=O)N1CCN(c2nc(OCC3CCCN3C)nc3c2CCN(c2cccc4cccc(Cl)c24)C3)CC1CC#N (centres undefined) + CN1CCN(c2cc(C(=O)Nc3cc4cc(-c5cnn(C)c5)ccc4cn3)ccn2)CC1
active: viability, T/C [6] 1.08% | viability, T/C [12] 1.37% | viability, T/C [18] 0.87% | viability, T/C [19] 0.79% | viability, T/C [20] 0.16% | viability, T/C [21] 0.83% | viability, T/C [22] 0.12% | viability, T/C [23] 0.11% | viability, T/C [24] 1.63% | viability, T/C [25] 0.14% | viability, T/C [26] 0.63% | viability, T/C [27] 0.92% | viability, T/C [28] 0.12% | viability, T/C [29] 0.11% | viability, T/C [30] 1.67% | viability, T/C [31] 0.19% | viability, T/C [32] 0.18% | viability, T/C [33] 0.88% | viability, T/C [34] 0.29% | viability, T/C [35] 0.19% | viability, T/C [36] 0.93%
< 31.6 nM: IC50 (second compound 0.316 µM) | IC50 (second compound 1 µM) | IC50 (second compound 3.16 µM) | IC50 (second compound 10 µM)
5610 nM: IC50 (second compound 0.1 µM)
inactive: viability, T/C [1] 121% | viability, T/C [2] 103% | viability, T/C [3] 118% | viability, T/C [4] 101% | viability, T/C [5] 94% | viability, T/C [7] 106% | viability, T/C [8] 95.9% | viability, T/C [9] 92.6% | viability, T/C [10] 87% | viability, T/C [11] 110% | viability, T/C [13] 50.1% | viability, T/C [14] 51.6% | viability, T/C [15] 36.4% | viability, T/C [16] 41.5% | viability, T/C [17] 45.6%
5380 nM: IC50 (second compound 0.0316 µM)

Reference: PubChem BioAssay AID2060606 (Molecular Pharmacology Branch, DTP, NCI, 2025)
